Patent US20220298163A1, “BTK INHIBITORS WITH IMPROVED DUAL SELECTIVITY” (BEIGENE, LTD., priority 2017, published 2022)

Assays:
Tec = molecular target: T1, Tec (Homo sapiens, UniProt P42680); assay: Biochemical kinase selectivity: IC50 determination of Tec; conditions: for IC50: TR-FRET, 280 μM ATP; for Fold of Tec/Btk: ratio of IC50 values
T1 sequence (P42680 1-631): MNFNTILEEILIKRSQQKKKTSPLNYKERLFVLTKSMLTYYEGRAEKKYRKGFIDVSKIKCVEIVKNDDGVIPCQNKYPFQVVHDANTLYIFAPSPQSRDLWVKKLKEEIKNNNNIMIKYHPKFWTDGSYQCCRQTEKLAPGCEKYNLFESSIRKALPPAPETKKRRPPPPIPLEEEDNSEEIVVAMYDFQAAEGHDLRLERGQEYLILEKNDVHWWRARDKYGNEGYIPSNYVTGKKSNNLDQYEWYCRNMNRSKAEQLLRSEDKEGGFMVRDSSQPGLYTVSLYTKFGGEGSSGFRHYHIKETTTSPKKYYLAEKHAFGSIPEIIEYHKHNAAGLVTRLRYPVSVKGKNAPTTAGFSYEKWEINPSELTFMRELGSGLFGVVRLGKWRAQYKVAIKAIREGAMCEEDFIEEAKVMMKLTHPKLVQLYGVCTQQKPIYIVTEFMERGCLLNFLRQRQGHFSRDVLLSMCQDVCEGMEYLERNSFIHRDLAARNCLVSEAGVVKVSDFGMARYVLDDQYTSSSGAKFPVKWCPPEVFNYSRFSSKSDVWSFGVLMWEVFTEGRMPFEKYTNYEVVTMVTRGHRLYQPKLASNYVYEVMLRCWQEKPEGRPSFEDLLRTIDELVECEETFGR

EGFR = EGFR (Homo sapiens, UniProt P00533); assay: Biochemical kinase selectivity: IC50 determination of EGFR; conditions: for IC50: TR-FRET, 20 μM ATP; for Fold of EGFR/Btk: ratio of IC50 values
[1] = molecular target: T2, Btk kinase (aa2-659, Carna Biosciences) (Homo sapiens, UniProt Q06187); assay: Btk kinase enzymatic assay (TR-FRET); format: biochemical; conditions: for IC50: TR-FRET, 30 μM ATP, compound incubated with kinase 60 minutes
T2 construct: purchased Carna Biosciences
T2 sequence (Q06187 2-659): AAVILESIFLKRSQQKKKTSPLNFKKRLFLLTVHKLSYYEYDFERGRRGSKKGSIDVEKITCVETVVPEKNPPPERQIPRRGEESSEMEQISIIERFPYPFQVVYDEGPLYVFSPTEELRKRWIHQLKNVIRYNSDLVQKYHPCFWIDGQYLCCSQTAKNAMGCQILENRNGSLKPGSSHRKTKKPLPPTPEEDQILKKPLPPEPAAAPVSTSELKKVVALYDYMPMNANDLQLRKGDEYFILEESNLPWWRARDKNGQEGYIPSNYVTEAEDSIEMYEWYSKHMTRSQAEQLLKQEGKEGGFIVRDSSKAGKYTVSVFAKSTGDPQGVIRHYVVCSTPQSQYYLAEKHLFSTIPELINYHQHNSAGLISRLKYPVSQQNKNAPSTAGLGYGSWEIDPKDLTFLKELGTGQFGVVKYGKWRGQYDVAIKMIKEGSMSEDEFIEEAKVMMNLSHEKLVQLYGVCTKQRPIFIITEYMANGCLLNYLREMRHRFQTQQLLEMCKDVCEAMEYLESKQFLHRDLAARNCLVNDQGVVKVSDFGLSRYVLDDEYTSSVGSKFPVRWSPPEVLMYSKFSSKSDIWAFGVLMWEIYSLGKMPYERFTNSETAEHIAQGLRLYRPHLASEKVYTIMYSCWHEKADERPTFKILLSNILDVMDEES

Chain of EGFR (P00533 25-1210): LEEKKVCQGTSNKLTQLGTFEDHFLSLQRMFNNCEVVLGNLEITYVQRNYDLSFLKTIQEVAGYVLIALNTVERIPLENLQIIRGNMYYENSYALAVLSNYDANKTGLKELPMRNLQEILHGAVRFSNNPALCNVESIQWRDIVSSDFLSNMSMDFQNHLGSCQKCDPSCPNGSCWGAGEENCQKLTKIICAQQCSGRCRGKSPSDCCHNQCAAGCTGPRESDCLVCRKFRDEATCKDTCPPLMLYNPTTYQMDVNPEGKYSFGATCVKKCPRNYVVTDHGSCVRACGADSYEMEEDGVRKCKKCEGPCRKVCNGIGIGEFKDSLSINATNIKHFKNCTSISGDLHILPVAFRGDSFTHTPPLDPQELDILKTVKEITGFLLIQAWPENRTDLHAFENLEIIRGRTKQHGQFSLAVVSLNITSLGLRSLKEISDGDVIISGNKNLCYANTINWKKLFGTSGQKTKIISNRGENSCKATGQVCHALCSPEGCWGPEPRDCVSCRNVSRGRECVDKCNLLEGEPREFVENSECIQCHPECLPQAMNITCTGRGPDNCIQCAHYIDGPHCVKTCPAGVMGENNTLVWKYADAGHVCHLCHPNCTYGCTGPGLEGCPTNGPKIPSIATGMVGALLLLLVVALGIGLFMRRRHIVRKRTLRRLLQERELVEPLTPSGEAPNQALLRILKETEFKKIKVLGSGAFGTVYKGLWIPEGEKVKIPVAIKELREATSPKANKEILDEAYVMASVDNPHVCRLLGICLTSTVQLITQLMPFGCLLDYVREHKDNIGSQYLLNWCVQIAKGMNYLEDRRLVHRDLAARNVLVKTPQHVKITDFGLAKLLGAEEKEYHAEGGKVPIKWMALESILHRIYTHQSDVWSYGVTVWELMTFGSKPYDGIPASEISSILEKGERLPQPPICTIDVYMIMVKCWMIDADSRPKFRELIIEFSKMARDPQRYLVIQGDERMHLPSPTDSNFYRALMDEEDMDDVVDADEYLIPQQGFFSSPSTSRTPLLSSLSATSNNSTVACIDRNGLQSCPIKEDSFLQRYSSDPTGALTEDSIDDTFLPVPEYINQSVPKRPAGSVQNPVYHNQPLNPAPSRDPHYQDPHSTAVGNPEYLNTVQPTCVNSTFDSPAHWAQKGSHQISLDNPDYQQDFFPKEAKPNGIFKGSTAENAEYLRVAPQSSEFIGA

IC50 (Tec) [nM] | Fold of Tec/Btk (Tec) [fold] | IC50 (EGFR) [nM] | Fold of EGFR/Btk (EGFR) [fold] | IC50 [1] [nM] | Compound | selectivity of Btk over Tec (in words) (Tec) | affinity / inhibitory activity for Btk (in words) [1]
56 | 19 | 0.49 | 0.2 | – | C=CC(=O)Nc1ccccc1C1CCNc2c(C(N)=O)c(-c3cc(F)c(F)c(Cl)c3)nn21 (stereo not drawn) [Example 158, reference compound] | – | –
1000 | 50 | – | – | 20 | C=CC(=O)N1CCC(C2CCNc3c(C(N)=O)c(-c4cc(Cl)c(OC)c(Cl)c4)nn32)CC1 (stereo not drawn) [Example A15, 7-(1-acryloylpiperidin-4-yl)-2-(3,5-dichloro-4-methoxyphenyl)-4,5,6,7-tetrahydropyrazolo[1,5-a]pyrimidine-3-carboxamide] | – | poor affinity for Btk
556 | 78 | 2370 | 333 | 7.1 | C=CC(=O)N1CCC(C2CCNc3c(C(N)=O)c(-c4cc(Br)c(C)c(Br)c4)nn32)CC1 (stereo not drawn) [Example A16, 7-(1-acryloylpiperidin-4-yl)-2-(3,5-dibromo-4-methylphenyl)-4,5,6,7-tetrahydropyrazolo[1,5-a]pyrimidine-3-carboxamide] | – | –
455 | 63.2 | > 10000 | – | 7.2 | C=CC(=O)N1CCC(C2CCNc3c(C(N)=O)c(-c4cc(OC)c(-c5ccco5)c(OC)c4)nn32)CC1 (stereo not drawn) [Example A19, 7-(1-acryloylpiperidin-4-yl)-2-(4-(furan-2-yl)-3,5-dimethoxyphenyl)-4,5,6,7-tetrahydropyrazolo[1,5-a]pyrimidine-3-carboxamide] | – | –
> 1000 | – | – | – | 18 | C=CC(=O)N1CCC(C2CCNc3c(C(N)=O)c(-c4cc(OC)c(-c5cc[nH]n5)c(OC)c4)nn32)CC1 (stereo not drawn) [Example A27, 7-(1-acryloylpiperidin-4-yl)-2-(3,5-dimethoxy-4-(1H-pyrazol-3-yl)phenyl)-4,5,6,7-tetrahydropyrazolo[1,5-a]pyrimidine-3-carboxamide] | – | –
369 | 23 | – | – | 16 | C=CC(=O)N1CCC(C2CCNc3c(C(N)=O)c(-c4cc(OC)c(-c5ccsc5)c(OC)c4)nn32)CC1 (stereo not drawn) [Example A28, 7-(1-acryloylpiperidin-4-yl)-2-(3,5-dimethoxy-4-(thiophen-3-yl)phenyl)-4,5,6,7-tetrahydropyrazolo[1,5-a]pyrimidine-3-carboxamide] | – | –
> 1000 | – | – | – | 16 | C=CC(=O)N1CCC(C2CCNc3c(C(N)=O)c(-c4cc(C)c(C5CC5)c(C)c4)nn32)CC1 (stereo not drawn) [Example A29, 7-(1-acryloylpiperidin-4-yl)-2-(4-cyclopropyl-3,5-dimethylphenyl)-4,5,6,7-tetrahydropyrazolo[1,5-a]pyrimidine-3-carboxamide] | – | –
> 1000 | – | – | – | 53 | C=CC(=O)N1CCC(C2CCNc3c(C(N)=O)c(-c4cc(C)cc(C)c4)nn32)CC1 (stereo not drawn) [Example A30, 7-(1-acryloylpiperidin-4-yl)-2-(3,5-dimethylphenyl)-4,5,6,7-tetrahydropyrazolo[1,5-a]pyrimidine-3-carboxamide] | – | –
102 | 15 | 6080 | 894 | 6.8 | C=CC(=O)N1CCC(C2CCNc3c(C(N)=O)c(-c4cc(OC)c(C5CCCCC5)c(OC)c4)nn32)CC1 (stereo not drawn) [Example A39, 7-(1-acryloylpiperidin-4-yl)-2-(4-cyclohexyl-3,5-dimethoxyphenyl)-4,5,6,7-tetrahydropyrazolo[1,5-a]pyrimidine-3-carboxamide] | – | –
253 | 23 | – | – | 11 | C=CC(=O)N1CCC(C2CCNc3c(C(N)=O)c(-c4cc(OC)c(C5=CCCCC5)c(OC)c4)nn32)CC1 (stereo not drawn) [Example A40, 7-(1-acryloylpiperidin-4-yl)-2-(2,6-dimethoxy-2′,3′,4′,5′-tetrahydro-[1,1′-biphenyl]-4-yl)-4,5,6,7-tetrahydropyrazolo[1,5-a]pyrimidine-3-carboxamide] | – | –
53 | 18 | 2000 | 668 | 3 | C=CC(=O)N1CCC(C2CCNc3c(C(N)=O)c(-c4cc(OC)c(CCc5ccccc5)c(OC)c4)nn32)CC1 (stereo not drawn) [Example A42, 7-(1-acryloylpiperidin-4-yl)-2-(3,5-dimethoxy-4-phenethylphenyl)-4,5,6,7-tetrahydropyrazolo[1,5-a]pyrimidine-3-carboxamide] | – | –
39 | 5.7 | 6180 | 909 | 6.8 | C=CC(=O)N1CCC(C2CCNc3c(C(N)=O)c(-c4cc(OC)c(C(=C)c5ccccc5)c(OC)c4)nn32)CC1 (stereo not drawn) [Example A43, 7-(1-acryloylpiperidin-4-yl)-2-(3,5-dimethoxy-4-(1-phenylvinyl)phenyl)-4,5,6,7-tetrahydropyrazolo[1,5-a]pyrimidine-3-carboxamide] | – | –
35 | 7.1 | 3170 | 647 | 4.9 | C=CC(=O)N1CCC(C2CCNc3c(C(N)=O)c(-c4cc(OC)c(C(C)c5ccccc5)c(OC)c4)nn32)CC1 (stereo not drawn) [Example A44, 7-(1-acryloylpiperidin-4-yl)-2-(3,5-dimethoxy-4-(1-phenylethyl)phenyl)-4,5,6,7-tetrahydropyrazolo[1,5-a]pyrimidine-3-carboxamide] | – | –
362 | 82 | > 10000 | – | 4.4 | C=CC(=O)N1CCC(C2CCNc3c(C(N)=O)c(-c4cc(OC)c(C5CC5)c(OC(C)C)c4)nn32)CC1 (stereo not drawn) [Example A45, 7-(1-acryloylpiperidin-4-yl)-2-(4-cyclopropyl-3-isopropoxy-5-methoxyphenyl)-4,5,6,7-tetrahydropyrazolo[1,5-a]pyrimidine-3-carboxamide] | – | –
– | – | – | – | 13 | C=CC(=O)N1CC(C2CCNc3c(C(N)=O)c(-c4cc(Cl)c(C)c(Cl)c4)nn32)C1 (stereo not drawn) [Example B1, 7-(1-acryloylazetidin-3-yl)-2-(3,5-dichloro-4-methylphenyl)-4,5,6,7-tetrahydropyrazolo[1,5-a]pyrimidine-3-carboxamide] | – | –
– | – | – | – | 34 | C=CC(=O)N1CC2CNc3c(C(N)=O)c(-c4cc(OC)c(OC)c(OC)c4)nn3C2C1 (stereo not drawn) [Example C2, 7-acryloyl-2-(3,4,5-trimethoxyphenyl)-5,5a,6,7,8,8a-hexahydro-4H-pyrazolo[1,5-a]pyrrolo[3,4-e]pyrimidine-3-carboxamide] | – | –
– | – | – | – | 10 | C=CC(=O)N1CCC2C(CNc3c(C(N)=O)c(-c4cc(OC)c(C)c(OC)c4)nn32)C1 (stereo not drawn) [Example D1, 7-acryloyl-2-(3,5-dimethoxy-4-methylphenyl)-4,5,5a,6,7,8,9,9a-octahydropyrazolo[1,5-a]pyrido[3,4-e]pyrimidine-3-carboxamide] | – | –
> 1000 | – | – | – | 63 | C=CC(=O)N1CCC2Nc3c(C(N)=O)c(-c4cc(OC)c(C)c(OC)c4)nn3CC2C1 (stereo not drawn) [Example D2, 7-acryloyl-2-(3,5-dimethoxy-4-methylphenyl)-4,4a,5,6,7,8,8a,9-octahydropyrazolo[1,5-a]pyrido[4,3-d]pyrimidine-3-carboxamide] | – | –
– | – | – | – | 33 | C=CC(=O)NCC1CCNc2c(C(N)=O)c(-c3cc(OC)c(C)c(OC)c3)nn21 (stereo not drawn) [Example E1, 7-(acrylamidomethyl)-2-(3,5-dimethoxy-4-methylphenyl)-4,5,6,7-tetrahydropyrazolo[1,5-a]pyrimidine-3-carboxamide] | – | –
– | – | – | – | > 100 | C=CC(=O)N1CCC2(CC1)CC(C1CCNc3c(C(N)=O)c(-c4cc(OC)c(C)c(OC)c4)nn31)C2 (stereo not drawn) [Example F1, 7-(7-acryloyl-7-azaspiro[3.5]nonan-2-yl)-2-(3,5-dimethoxy-4-methylphenyl)-4,5,6,7-tetrahydropyrazolo[1,5-a]pyrimidine-3-carboxamide] | – | –
– | – | – | – | 12 | C=CC(=O)N1CC2CCC(C1)C2C1CCNc2c(C(N)=O)c(-c3cc(OC)c(C)c(OC)c3)nn21 (stereo not drawn) [Example G1, 7-(3-acryloyl-3-azabicyclo[3.2.1]octan-8-yl)-2-(3,5-dimethoxy-4-methylphenyl)-4,5,6,7-tetrahydropyrazolo[1,5-a]pyrimidine-3-carboxamide] | – | –
– | – | – | – | 35 | C=CC(=O)N1CC2(CC(C3CCNc4c(C(N)=O)c(-c5cc(OC)c(C)c(OC)c5)nn43)C2)C1 (stereo not drawn) [Example H1, 7-(2-acryloyl-2-azaspiro[3.3]heptan-6-yl)-2-(3,5-dimethoxy-4-methylphenyl)-4,5,6,7-tetrahydropyrazolo[1,5-a]pyrimidine-3-carboxamide] | – | –
– | – | – | – | 22 | C=CC(=O)N1CCC(C2CCNc3c(C(N)=O)c(-c4ccc(Cl)cc4)nn32)CC1 (stereo not drawn) [reference compound] | – | –

Compound | IC50 (Tec) [nM] | Fold of Tec/Btk (Tec) [fold] | IC50 (EGFR) [nM] | Fold of EGFR/Btk (EGFR) [fold] | IC50 [1] [nM] | selectivity of Btk over Tec (in words) (Tec) | affinity / inhibitory activity for Btk (in words) [1]
C=CC(=O)N1CCC(C2CCNc3c(C(N)=O)c(-c4ccc(C)c(OC)c4)nn32)CC1 (stereo not drawn) [Example 174, reference compound] | 64 | 13 | 281 | 58.5 | – | almost no selectivity against Tec | low affinity for Btk
